In patent US8034812B2, “Imidazopyridazine derivative having kinase inhibitory activity and pharmaceutical agent thereof” (Takeda Pharmaceutical Company Limited, priority 2006, dated 2011):

Columns and labels:
[1] = molecular target: T1, VEGFR2 intracellular domain protein (Homo sapiens, UniProt P35968); assay: Determination of vascular endothelial growth factor receptor 2 (VEGFR2) kinase inhibitory activity (AlphaScreen); format: biochemical; details: read-out: VEGFR2 kinase inhibitory rate
T1 construct: made in house; host or cells: SF-21 insect cells, recombinant baculovirus BAC-VEGFR2
Procedure: Human vascular endothelial growth factor receptor 2 (hereinafter to be referred to as VEGFR2) gene was cloned by PCR using cDNA Libraries Human Placenta (Clontech) as a template. The primer used for PCR was prepared from base sequence (Genbank Accession AF035121) information of VEGFR2 gene by adding a base sequence encoding flag peptide and a recognition sequence of the restriction enzyme to a base sequence (2671-4374 of Genbank Accession AF035121) encoding the VEGFR2 intracellular domain region, so that the protein contains an N-terminal Flag tag. The primer base sequence is shown below.
SF-21 cells were sown at 1×10^6 cells/mL to Sf-900II SFM medium (1 L, Invitrogen) containing 10% fetal bovine serum (trace), 50 mg/L Gentamicin (Invitrogen) and 0.1% Pluronic F-68 (Invitrogen), and shaking culture was performed using a 2 L volume Erlenmeyer flask at 27° C., 100 rpm. After culturing for 24 hrs, recombinant baculovirus BAC-VEGFR2 (13.4 mL) was added to the mixture, and the mixture was further cultured for 3 days. The culture medium was centrifuged at 2,000 rpm for 5 min to give virus-infected cells. The infected cells were washed with a phosphate buffered saline (Invitrogen), centrifuged under the same conditions, and the cells were preserved at −80° C. The cryopreserved cells were thawed in ice, suspended in buffer A (50 mM Tris buffer (30 mL, pH 7.4) containing 20% glycerol, 0.15 M NaCl) supplemented with Complete Protease Inhibitor (Boehringer), and ruptured 3 times with a Polytron homogenizer (Kinematica) at 20,000 rpm for 30 sec. The ruptured medium was clarified by centrifugation at 40,000 rpm for 30 min and filtered with a 0.45 μm filter. The filtrate was passed through a column packed with Anti-FLAG M2 Affinity Gel (4 mL, Sigma) at a flow rate of about 0.5 mL/min. The column was washed with buffer A, and eluted with buffer A containing 100 μg/mL of FLAG peptide. The eluate was concentrated with Vivaspin 20 (Vivascience) having a molecular weight cut off of 30K. The buffer of this concentrate was exchanged using NAP™ 25 column (Amersham Bioscience) equilibrated with buffer A. The fractions containing intracellular domain protein of VEGFR2 were collected, glycerol was added to the final concentration of 50% and cryopreserved at −80° C.
A test compound dissolved in dimethyl sulfoxide (DMSO) was diluted with a buffer (50 mM Tris-HCl (pH 7.5), 5 mM MgCl2, 5 mM MnCl2, 2 mM dithiothreitol, 0.01% Tween-20). To this compound solution (5 μL) was added a buffer (10 μL) containing 50 ng/mL of VEGFR2 intracellular domain protein and 250 ng/mL of biotin labeled polypeptide biotinyl-poly-Glu:Tyr (4:1) (CIS bio International). To the obtained mixture was added a buffer (10 μL) containing ATP (25 μM), the mixture was allowed to react at 25° C. for 5 min and the reaction was quenched with 25 μL of a stop solution (100 mM EDTA disodium salt, 62.5 mM HEPES buffer (pH 7.4), 250 mM NaCl, 0.1% bovine serum albumin, 10 μg/mL AlphaScreen assay streptavidin donor beads (Streptavidin Donor beads: PerkinElmer), 10 μg/mL AlphaScreen assay anti-phosphotyrosine recognition antibody PY-100 binding acceptor beads (Anti-phosphotyrosine (P-Tyr-100) Acceptor beads: PerkinElmer)). The reaction solution was allowed to stand at 25° C. for 16 hrs, and the wells were counted using a plate reader Fusion™ (PerkinElmer). The kinase inhibitory rate (%) of the test compound was calculated by the following formula: Inhibitory rate(%)=(1−(count of test compound−blank)÷(control−blank))×100

[2] = test system: Human umbilical vein-derived vascular endothelial cells (HUVEC); assay: Vascular endothelial cell growth inhibitory test (VEGF-stimulated HUVEC, XTT); format: cell-based; details: 120 h, 5 days of culture
Procedure: To be specific, HUVEC was suspended in a vascular endothelial cell medium containing the aforementioned 5% bovine fetal serum and plated on a 96 well flat bottom plate by 50 μL (3000 cells) each well. After culture overnight, various concentrations of the test substance and 120 ng/mL of vascular endothelial growth factor (VEGF) were dissolved in a vascular endothelial cell medium containing 5% bovine fetal serum and added to each well by 50 μL. After 5 days of culture, a XTT reagent (Wako Pure Chemical Industries, Ltd.) was added to each well by 10 μL, and the mixture was reacted in an incubator at 37° C., 5% carbon dioxide for 2-3 hr. The absorbance at 450 nm was measured by a microtiter plate reader and the cell growth inhibitory activity was determined.

[3] = molecular target: T2, PDGFRβ intracellular domain protein (Homo sapiens, UniProt P09619); assay: Determination of platelet-derived growth factor receptor β (PDGFRβ) kinase inhibitory activity (AlphaScreen); format: biochemical
T2 construct: 125 ng/ml of PDGFRβ intracellular domain protein (UPSTATE); purchased UPSTATE
Procedure: (§1) A test compound dissolved in dimethyl sulfoxide (DMSO) was diluted with a buffer (50 mM Tris-HCl (pH 7.5), 5 mM MgCl2, 5 mM MnCl2, 2 mM dithiothreitol, 0.01% Tween-20). To this compound solution (5 μL) was added a buffer (10 μL) containing 125 ng/ml of PDGFRβ intracellular domain protein (UPSTATE) and 250 ng/mL of biotin labeled polypeptide biotinyl-poly-Glu:Tyr (4:1) (CIS bio International). At 5 min after mixing kinase enzyme and the compound and biotin labeled polypeptide, to the obtained mixture was added a buffer (10 μL) containing ATP (25 μM), the mixture was allowed to react at 25° C. for 30 min and the reaction was quenched with 25 μL of a stop solution (100 mM EDTA disodium salt, 62.5 mM HEPES buffer (pH 7.4), 250 mM NaCl, 0.1% bovine serum albumin, 10 μg/mL AlphaScreen assay streptavidin donor beads (Streptavidin Donor Beads: PerkinElmer), 10 μg/mL AlphaScreen assay anti-phosphotyrosine recognition antibody PT-66 binding acceptor beads (Anti-phosphotyrosine (P-Tyr-66) Acceptor beads: PerkinElmer)). The reaction solution was allowed to stand at 25° C. for 16 hrs, and the wells were counted using a plate reader Fusion™ (PerkinElmer). The kinase inhibitory rate (%) of the test compound was calculated by the following formula: Inhibitory rate(%)=(1−(count of test compound=blank)÷(control−blank))×100
(§2) The count of the solution reacted without addition of the compound was used as a “control”, and the count of the solution without the compound and ATP was used as a “blank”.

[4] = molecular target: T3, PDGFRα intracellular domain protein (Homo sapiens, UniProt P16234); assay: Determination of platelet-derived growth factor receptor α (PDGFRα) kinase inhibitory activity (AlphaScreen); format: biochemical
T3 construct: 125 ng/ml of PDGFRα intracellular domain protein (UPSTATE); purchased UPSTATE
Procedure: as §1, with “PDGFRα” for “PDGFRβ”, “beads:” for “Beads:”, “compound−blank)÷(control−blank))×100” for “compound=blank)÷(control−blank))×100”
as §2

T1 sequence (P35968 786-1356 limits assumed): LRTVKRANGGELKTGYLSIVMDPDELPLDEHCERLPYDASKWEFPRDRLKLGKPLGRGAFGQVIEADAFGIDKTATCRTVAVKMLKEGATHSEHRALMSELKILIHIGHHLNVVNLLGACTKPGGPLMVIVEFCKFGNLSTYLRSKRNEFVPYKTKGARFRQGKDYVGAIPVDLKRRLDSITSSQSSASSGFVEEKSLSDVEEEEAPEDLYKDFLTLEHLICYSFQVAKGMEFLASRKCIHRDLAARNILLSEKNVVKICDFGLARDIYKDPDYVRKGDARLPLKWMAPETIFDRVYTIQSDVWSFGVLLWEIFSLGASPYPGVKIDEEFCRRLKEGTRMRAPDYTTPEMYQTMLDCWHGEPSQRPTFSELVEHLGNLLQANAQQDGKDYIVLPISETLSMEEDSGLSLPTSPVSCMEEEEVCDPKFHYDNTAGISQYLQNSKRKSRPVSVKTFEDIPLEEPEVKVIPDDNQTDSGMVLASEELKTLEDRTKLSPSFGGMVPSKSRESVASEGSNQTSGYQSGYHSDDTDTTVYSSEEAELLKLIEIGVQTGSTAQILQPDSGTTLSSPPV
T3 sequence (P16234 550-1089 limits assumed): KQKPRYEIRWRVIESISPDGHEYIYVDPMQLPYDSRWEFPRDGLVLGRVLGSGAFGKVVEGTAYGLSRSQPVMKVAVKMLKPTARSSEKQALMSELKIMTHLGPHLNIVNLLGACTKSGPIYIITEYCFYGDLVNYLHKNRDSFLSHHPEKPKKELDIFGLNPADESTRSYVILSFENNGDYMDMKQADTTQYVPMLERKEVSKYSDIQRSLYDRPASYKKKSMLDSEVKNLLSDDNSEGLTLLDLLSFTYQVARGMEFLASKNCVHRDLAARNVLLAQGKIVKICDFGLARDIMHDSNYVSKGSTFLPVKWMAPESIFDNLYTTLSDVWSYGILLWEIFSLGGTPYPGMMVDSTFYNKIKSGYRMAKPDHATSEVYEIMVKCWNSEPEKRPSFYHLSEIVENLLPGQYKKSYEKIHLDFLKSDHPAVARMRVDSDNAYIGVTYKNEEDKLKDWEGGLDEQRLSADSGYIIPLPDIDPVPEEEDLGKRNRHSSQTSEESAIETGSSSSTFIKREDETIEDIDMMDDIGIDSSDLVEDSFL
T2 sequence (P09619 554-1106 limits assumed): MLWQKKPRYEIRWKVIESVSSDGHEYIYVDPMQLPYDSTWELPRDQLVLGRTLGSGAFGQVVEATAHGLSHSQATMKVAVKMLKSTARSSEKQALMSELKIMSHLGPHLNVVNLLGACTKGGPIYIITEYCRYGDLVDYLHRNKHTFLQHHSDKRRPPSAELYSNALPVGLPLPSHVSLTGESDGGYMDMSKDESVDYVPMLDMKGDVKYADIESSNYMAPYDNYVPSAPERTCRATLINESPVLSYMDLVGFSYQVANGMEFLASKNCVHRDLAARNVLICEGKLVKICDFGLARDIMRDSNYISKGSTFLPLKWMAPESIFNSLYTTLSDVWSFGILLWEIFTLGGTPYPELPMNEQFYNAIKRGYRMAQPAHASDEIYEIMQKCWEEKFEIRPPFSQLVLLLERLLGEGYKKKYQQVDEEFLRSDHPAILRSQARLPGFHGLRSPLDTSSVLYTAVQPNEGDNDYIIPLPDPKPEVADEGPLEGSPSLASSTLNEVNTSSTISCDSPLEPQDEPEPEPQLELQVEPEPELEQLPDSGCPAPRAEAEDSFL

| SMILES | inhibition at 1 µM [1] [%] | IC50 [2] [µM] | IC50 [3] [µM] | IC50 [4] [µM] |
| --- | --- | --- | --- | --- |
| Cc1cc(C(=O)Nc2cc(Oc3ccc4nc(NC(=O)C5CC5)cn4n3)ccc2C)n(C)n1 [Example 111, N-[5-({2-[(cyclopropylcarbonyl)amino]imidazo[1,2-b]pyridazin-6-yl}oxy)-2-methylphenyl]-1,3-dimethyl-1H-pyrazole-5-carboxamide] | ≥ 90 | ≤ 0.5 |  |  |
| Cc1nc(C(=O)Nc2cccc(Oc3ccc4nc(NC(=O)C5CC5)cn4n3)c2)c(C)o1 [Example 117, N-[3-({2-[(cyclopropylcarbonyl)amino]imidazo[1,2-b]pyridazin-6-yl}oxy)phenyl]-2,5-dimethyl-1,3-oxazole-4-carboxamide] | ≥ 90 | ≤ 0.5 | ≤ 0.5 |  |
| Cc1nc(C)c(C(=O)Nc2cccc(Oc3ccc4nc(NC(=O)C5CC5)cn4n3)c2)s1 [Example 114, N-[3-({2-[(cyclopropylcarbonyl)amino]imidazo[1,2-b]pyridazin-6-yl}oxy)phenyl]-2,4-dimethyl-1,3-thiazole-5-carboxamide] | ≥ 90 | ≤ 0.5 | ≤ 0.5 |  |
| Cc1cc(C(=O)Nc2cc(Oc3ccc4nc(NC(=O)C5CC5)cn4n3)ccc2F)n(C)n1 [Example 148, N-[5-({2-[(cyclopropylcarbonyl)amino]imidazo[1,2-b]pyridazin-6-yl}oxy)-2-fluorophenyl]-1,3-dimethyl-1H-pyrazole-5-carboxamide] | ≥ 90 | ≤ 0.5 | ≤ 0.5 | ≤ 0.5 |
| O=C(Nc1cn2nc(Oc3ccc4cc[nH]c4c3)ccc2n1)C1CC1 [Example 95, N-[6-(1H-indol-6-yloxy)imidazo[1,2-b]pyridazin-2-yl]cyclopropanecarboxamide] | ≥ 90 | ≤ 0.5 |  | ≤ 0.5 |
| Cc1nc(C)c(C(=O)Nc2cc(Oc3ccc4nc(NC(=O)C5CC5)cn4n3)ccc2F)o1 [Example 289, N-[5-({2-[(cyclopropylcarbonyl)amino]imidazo[1,2-b]pyridazin-6-yl}oxy)-2-fluorophenyl]-2,4-dimethyl-1,3-oxazole-5-carboxamide] | ≥ 90 | ≤ 0.5 | ≤ 0.5 | ≤ 0.5 |
| CCn1cc(C(=O)Nc2cc(Oc3ccc4nc(NC(=O)C5CC5)cn4n3)ccc2Cl)c(C)n1 [Example 254, N-[2-chloro-5-({2-[(cyclopropylcarbonyl)amino]imidazo[1,2-b]pyridazin-6-yl}oxy)phenyl]-1-ethyl-3-methyl-1H-pyrazole-4-carboxamide] | ≥ 90 | ≤ 0.5 | ≤ 0.5 |  |
| COc1cc(C(=O)Nc2cc(Oc3ccc4nc(NC(=O)C5CC5)cn4n3)ccc2C)n(C)n1 [Example 302, N-[5-({2-[(cyclopropylcarbonyl)amino]imidazo[1,2-b]pyridazin-6-yl}oxy)-2-methylphenyl]-3-methoxy-1-methyl-1H-pyrazole-5-carboxamide] | ≥ 90 | ≤ 0.5 | ≤ 0.5 | ≤ 0.5 |
| Cc1cc(C(=O)Nc2cccc(Sc3ccc4nc(NC(=O)C5CC5)cn4n3)c2)n(C)n1 [Example 150, N-[3-({2-[(cyclopropylcarbonyl)amino]imidazo[1,2-b]pyridazin-6-yl}sulfanyl)phenyl]-1,3-dimethyl-1H-pyrazole-5-carboxamide] | ≥ 90 | ≤ 0.5 | ≤ 0.5 |  |
| COCC(=O)Nc1cn2nc(Oc3cccc(NC(=O)c4cc(C)nn4C)c3)ccc2n1 [Example 127, N-[3-({2-[(methoxyacetyl)amino]imidazo[1,2-b]pyridazin-6-yl}oxy)phenyl]-1,3-dimethyl-1H-pyrazole-5-carboxamide] | ≥ 90 | ≤ 0.5 | ≤ 0.5 |  |
| Cc1ccc(Oc2ccc3nc(NC(=O)C4CC4)cn3n2)cc1N [Example 108, N-[6-(3-amino-4-methylphenoxy)imidazo[1,2-b]pyridazin-2-yl]cyclopropanecarboxamide] | ≥ 90 | ≤ 0.5 |  |  |
| CCNC(=O)Nc1cccc(Oc2ccc3nc(NC(=O)C4CC4)cn3n2)c1 [Example 103, N-[6-(3-{[(ethylamino)carbonyl]amino}phenoxy)imidazo[1,2-b]pyridazin-2-yl]cyclopropanecarboxamide] | ≥ 90 | ≤ 0.5 | ≤ 0.5 |  |
| Cc1cc(C(=O)Nc2cccc(Oc3ccc4nc(NC(=O)CN(C)C)cn4n3)c2)n(C)n1 [Example 149, N-[3-({2-[(N,N-dimethylglycyl)amino]imidazo[1,2-b]pyridazin-6-yl}oxy)phenyl]-1,3-dimethyl-1H-pyrazole-5-carboxamide] | ≥ 90 | ≤ 0.5 | ≤ 0.5 |  |
